Patent US8603989B2, “Method for treating and preventing kidney stones employing an SGLT2 inhibitor and composition containing same” (Bristol-Myers Squibb Company, priority 2008, dated 2013)

Columns and labels:
diabetic patients = experiment: 12-week treatment of diabetic patients: urine glucose, HbA1c, urine volume (Table 5); assay type: in vivo, human
healthy subjects = settings: healthy subjects, 5, 20, 50 or 100 mg, within 24 hours, indirect comparison
patients with diabetes = settings: patients with diabetes, 5, 25 or 100 mg
Description: The levels of urine glucose of all subjects are shown in the plot and the mean urine glucose is in the darker lines.

type 2 diabetic patients = test system: type 2 diabetic patients
Description: C-aryl glucoside SGLT2 inhibitors are known to reduce blood glucose levels in diabetic patients, see U.S. Pat. No. 6,774,112, which is incorporated herein by reference in its entirety, but not known to increase urine volume. […] Metformin reduces plasma glucose concentration by non-renal mechanisms and is not known to induce glucosuria. […] On day 1 and day 14, the patients were examined for the levels of glucosuria and changes in urine volumes.

[1] = test system: human SGLT2 (hSGLT2) relative to human SGLT1 (hSGLT1); settings: ratio of EC50 in favor of SGLT2
Description: Selectivity for SGLT2 of a given inhibitor can be determined by comparing the EC50 values measured in the SGLT1 and SGLT2 assay. […] Cells expressing hSGLT1 or hSGLT2 were maintained using standard cell culture techniques. Assays for sodium-dependent glucose transport in 96-well plates were initiated by adding 100 μl/well of protein-free assay buffer containing sodium (Hepes/Tris pH 7.4, 137 mM NaCl, 5.4 mM KCl, 2.8 mM CaCl2, 1.2 mM MgSO4), 10 μM ^14C-AMG and inhibitor or dimethyl sulfoxide (DMSO) vehicle, and plates were incubated for 2 h at 37° C. Sodium-dependent ^14C-AMG uptake was calculated by subtracting the counts per minute (CPM) observed under sodium-free uptake conditions from the counts observed under sodium-containing conditions. Inhibitors were assayed at various concentrations in triplicate in the presence of sodium, and the percent inhibition was calculated by comparing CPM in inhibitor-containing wells with CPM in wells containing only DMSO vehicle. Phlorizin, a known SGLT inhibitor, was evaluated in parallel in every assay. A dose-response curve was fitted to an empirical four-parameter model using XL Fit (IDBS, Guilford, UK) to determine the inhibitor concentration at half-maximal response (EC50). SGLT2 selectivity is represented as a ratio of EC50 in favor of SGLT2.

[2] = 2.5-50 mg, after 12 weeks of treatment

CN(C)C(=N)N=C(N)N [Metformin, reference compound]
HbA1c reduction from baseline (diabetic patients; 1500 mg metformin, 12 weeks): 0.73%

CCOc1ccc(Cc2cc([C@@H]3O[C@H](CO)[C@@H](O)[C@H](O)[C@H]3O)ccc2Cl)cc1 [dapagliflozin PGS, dapagliflozin (S)-propylene glycol solvate]
glucosuric effect, loss of calories in the urine as compared to GSK 869,682 (healthy subjects): significant loss of calories in the urine
OGT (diabetic patients; [2]): improved
reduced HbAlC levels (diabetic patients; [2]): 0.71-0.9%
urine glucose excretion compared to placebo (patients with diabetes): higher
fasting serum glucose (FSG) levels (type 2 diabetic patients; two-week period): Dose-dependent reduction
postprandial glucose levels in oral glucose tolerance tests (OGTT) (type 2 diabetic patients; two-week period): reduced
urine volumes (type 2 diabetic patients; two-week period): no increase
urinary glucose levels within a 24-hour time period (type 2 diabetic patients; versus placebo, FIG. 3): increased

CCOc1ccc(Cc2cc([C@@H]3O[C@H](CO)[C@@H](O)[C@H](O)[C@H]3O)ccc2Cl)cc1 [dapagliflozin]
selectivity for SGLT2 relative to SGLT1 [1]: High selectivity for SGLT2
